pKi: −log10 of the molar value. Structures can show the parent of a compound that is named as a salt.
Assays:
[1] = target: human norepinephrine transporter (Homo sapiens, UniProt P23975); assay: Human norepinephrine (hNET) receptor binding, [125I]-RTI-55; settings: membranes of HEK-293 cells transfected with human norepinephrine transporter cDNA; 50 pM [125I]-RTI-55; IC50 converted by Cheng-Prusoff
Procedure, shortened: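 Membranes from HEK-293 cells expressing human NET, incubated 90 min at room temperature with 50 pM [125I]-RTI-55 and compound (10^−5 to 10^−12 M) in Krebs-HEPES pH 7.4. Nonspecific binding defined with 10 μM desipramine; filter-bound counts gave IC50, converted to Ki by Cheng-Prusoff.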

[2] = system: capsaicin-induced mechanical allodynia; assay: Capsaicin-induced mechanical allodynia rat model; assay type: in vivo; settings: sc, male Sprague-Dawley rats, single subcutaneous 10 mg/kg dose on Day 7, measurement 1 hour post dose, mean of eight animals
Description: On Day 0, male Sprague-Dawley rats (about 150 g each) in the dark cycle were placed in suspended wire-bottom cages and allowed to acclimate for 0.5 hour in a darkened, quiet room. The Day 0 paw withdrawal threshold (PWT) was determined on the left hind paw by Von Frey hair assessment using the Dixon up and down method. After assessment, the plantar muscle of the right hind paw was injected with 100 μL of capsaicin (0.25% weight/volume (w/v) in 10% ethanol, 10% Tween 80, in sterile saline).
On Day 6, the PWT of the left hind paw (contralateral from the injected paw) was determined for each animal. Animals on Day 6 with PWT≦11.7 g were considered allodynic responders and were regrouped so that the animals in each cage had similar mean PWT values.
On Day 7, the responders were dosed subcutaneously with 10 mg of the test compound per kg of rat body weight in vehicle, or were administered vehicle (10 mL/kg) alone. The vehicle was phosphate buffered saline containing 2% CREMOPHOR® EL (BASF). The contralateral (i.e., left hind paw) PWT values were determined at 1 hour after the single dose, with the investigator blinded to the dosing scheme. For each animal, the Day 6 PWT value was subtracted from the Day 7, 1 hour PWT value for the 10 mg/kg doses of test compound to give a delta PWT value (Delta PWT (drug)), which represents the change in PWT due to the 1 hour drug treatment. In the case of vehicle-alone treated animals, the Day 6 PWT value was subtracted from the Day 7, 1 hour PWT for the 10 mL/kg doses of vehicle and the values averaged (mean Delta PWT (vehicle)). In addition, the Day 6 PWT was subtracted from the Day 0 PWT to give the baseline level (Baseline) of allodynia present in each animal. Percent inhibition of allodynia of each animal, normalized for vehicle controls, was determined using the following formula: […]

[3] = target: human serotonin transporter (Homo sapiens, UniProt P31645); assay: Human serotonin (hSERT) receptor binding, [125I]-RTI-55; settings: membranes of HEK-293 cells transfected with human serotonin transporter cDNA, IC50 converted by Cheng-Prusoff
Procedure, shortened: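 Membranes from HEK-293 cells expressing human SERT were incubated 90 min at room temperature in Krebs-HEPES buffer pH 7.4 with […] [125I]-RTI-55 and compound (10^−5 to 10^−12 M), in duplicate. Nonspecific binding defined with 10 μM citalopram; IC50 converted to Ki by Cheng-Prusoff.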

human norepinephrine transporter, sequence (P23975 whole entry): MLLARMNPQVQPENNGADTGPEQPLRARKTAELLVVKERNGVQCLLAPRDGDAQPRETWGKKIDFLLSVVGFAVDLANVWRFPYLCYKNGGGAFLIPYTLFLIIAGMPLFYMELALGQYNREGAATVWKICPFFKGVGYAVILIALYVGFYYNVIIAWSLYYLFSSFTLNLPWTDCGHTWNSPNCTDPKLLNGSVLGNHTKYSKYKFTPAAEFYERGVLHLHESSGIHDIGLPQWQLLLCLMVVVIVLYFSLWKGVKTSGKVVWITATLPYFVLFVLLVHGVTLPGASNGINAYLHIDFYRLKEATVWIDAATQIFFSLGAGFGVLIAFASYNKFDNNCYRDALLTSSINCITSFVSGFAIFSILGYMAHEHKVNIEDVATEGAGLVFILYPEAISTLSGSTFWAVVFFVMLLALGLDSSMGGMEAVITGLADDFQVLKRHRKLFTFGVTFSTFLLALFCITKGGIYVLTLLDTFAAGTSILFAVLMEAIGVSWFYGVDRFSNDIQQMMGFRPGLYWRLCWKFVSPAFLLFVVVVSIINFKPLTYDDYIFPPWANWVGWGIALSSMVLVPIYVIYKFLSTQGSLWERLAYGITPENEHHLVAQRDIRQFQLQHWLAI
human serotonin transporter, sequence (P31645 whole entry): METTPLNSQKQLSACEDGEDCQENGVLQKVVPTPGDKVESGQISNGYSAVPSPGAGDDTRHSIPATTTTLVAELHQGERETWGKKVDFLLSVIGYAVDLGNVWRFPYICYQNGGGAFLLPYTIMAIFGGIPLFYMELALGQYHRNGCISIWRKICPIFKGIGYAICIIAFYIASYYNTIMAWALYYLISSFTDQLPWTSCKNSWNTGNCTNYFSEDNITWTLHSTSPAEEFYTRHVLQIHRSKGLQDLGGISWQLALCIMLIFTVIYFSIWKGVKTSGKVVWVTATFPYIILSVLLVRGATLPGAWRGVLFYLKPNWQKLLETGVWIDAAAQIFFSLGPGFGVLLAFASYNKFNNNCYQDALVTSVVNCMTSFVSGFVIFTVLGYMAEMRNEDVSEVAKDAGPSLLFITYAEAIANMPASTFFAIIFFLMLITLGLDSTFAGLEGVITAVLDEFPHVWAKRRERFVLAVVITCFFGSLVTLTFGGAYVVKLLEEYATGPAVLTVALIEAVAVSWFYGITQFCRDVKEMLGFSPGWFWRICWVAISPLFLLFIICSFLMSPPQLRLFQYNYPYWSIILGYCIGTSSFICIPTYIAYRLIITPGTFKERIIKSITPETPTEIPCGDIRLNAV

Row | pKi [1] | pKi [3] | SMILES | inhibition in vivo at 10 mg/kg [2] [%]
1 | 8.48 | 7.14 | Cc1ccc(OC[C@H]2CCCNC2)c(Oc2ccc(F)cc2F)n1 [Example 25, (S)-2-(2,4-difluoro-phenoxy)-6-methyl-3-(piperidin-3-ylmethoxy)-pyridine fumaric acid] | 77
2 | 8.28 | 6.89 | Cc1ccc(OC[C@H]2CCCNC2)c(Oc2cc(F)c(F)cc2F)n1 [Example 29, (S)-6-methyl-2-(2,4,5-trifluoro-phenoxy)-3-(piperidin-3-ylmethoxy)-pyridine fumaric acid] | 11
3 | 8.32 | 7.09 | Cc1ccc(OC[C@H]2CCCNC2)c(Oc2c(F)cc(F)cc2F)n1 [Example 44, (S)-6-methyl-2-(2,4,6-trifluoro-phenoxy)-3-(piperidin-3-ylmethoxy)-pyridine hydrochloride] | 18
4 | 8.08 | 7.54 | Cc1ccc(OC[C@H]2CCCNC2)c(Oc2c(F)cc(Cl)cc2F)n1 [Example 45, (S)-2-(4-chloro-2,6-difluoro-phenoxy)-6-methyl-3-(piperidin-3-ylmethoxy)-pyridine hydrochloride] | 1
